Assay [1] addresses T1, Heat shock factor protein 1 (Mus musculus, UniProt P38532).
T1 sequence (P38532 whole entry): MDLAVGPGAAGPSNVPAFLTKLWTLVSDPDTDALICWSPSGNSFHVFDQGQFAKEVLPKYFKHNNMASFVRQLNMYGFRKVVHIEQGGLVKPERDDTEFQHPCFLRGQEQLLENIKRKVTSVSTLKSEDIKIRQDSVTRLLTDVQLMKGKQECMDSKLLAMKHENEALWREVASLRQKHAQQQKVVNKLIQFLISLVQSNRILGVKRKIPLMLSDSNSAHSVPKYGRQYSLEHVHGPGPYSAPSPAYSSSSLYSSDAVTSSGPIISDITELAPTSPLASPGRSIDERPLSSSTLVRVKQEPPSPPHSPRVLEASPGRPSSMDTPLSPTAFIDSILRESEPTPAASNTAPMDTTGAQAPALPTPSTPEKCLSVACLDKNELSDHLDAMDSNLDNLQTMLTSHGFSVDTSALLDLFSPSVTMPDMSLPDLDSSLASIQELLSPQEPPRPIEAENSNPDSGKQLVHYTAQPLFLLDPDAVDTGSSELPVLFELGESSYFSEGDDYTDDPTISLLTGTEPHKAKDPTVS
Nature of the assay: decrease of HSF1-responsive luciferase luminescence – cell-based, NIH3T3, dose retest, confirmation (AID 2382).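 Note: NIH3T3 fibroblasts with HSF1-driven luciferase reporter stressed by proteasome inhibitor MG132; luminescence from HSF1-driven luciferase expression after 8 hours of MG132 stress.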 It is filed as functional.

The nature of assay [2]: alpha-synuclein stem-loop luciferase translation blockers – H4 neuroglioma cells, luminescence, confirmation (AID 1988). It is filed as functional, cell-based.
Assay [3] is described as follows: Luminescence Cell-Based Dose Response HTS to Identify Inhibitors of 5'UTR Stem-Loop Driven Prion Protein mRNA Translation in H4 Neuroglioblastoma Cells. [Related pubchem assays: 1827 (Project Summary), 1813 (Primary HTS)]. It is filed as functional.
A short description of assay [4]: luciferase reporter signal suppression in cells – H4 neuroglioma cells, luminescence, dose response (AID 1990). It is filed as functional, cell-based.
A short description of assay [5]: Luminescence Cell-Based Dose Confirmation HTS to Identify Inhibitors of Platelet Dense Granule Release. [Related pubchem assays: 1663 (Primary HTS), 1678 (Summary of Project)]. It is filed as functional.
For assay [6], the target named is Luciferin 4-monooxygenase (Photinus pyralis, UniProt P08659). In words: inhibition of purified Photinus pyralis luciferase – biochemical, luminescence, dose response (AID 1891).
Assay [7] is described as follows: DRD fibroblast viability loss – cell-based, non-viral oncogenic, luminescence, dose response (AID 1934). It is filed as functional. As to conditions: Homo sapiens.
Assay [8] deals with BJ. Nature of the assay: BJ-TERT fibroblast viability loss – cell-based, RAS-independent, luminescence, dose response (AID 1933). It is filed as functional. Particulars: Homo sapiens.
For assay [9], the system named is BJ. In words: BJ-TERT-LT-ST fibroblast viability loss – cell-based, RAS-independent, luminescence, dose response (AID 1935).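 Note: BJ fibroblasts immortalized with TERT plus LT and ST oncogenes.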 It is filed as functional. Particulars: Homo sapiens.
Assay [10] deals with BJ. Nature of the assay: cells. It is filed as functional, cell-based. Particulars: Homo sapiens.
A further assay addresses Cytochrome P450 3A4 (Homo sapiens, UniProt P08684).
A further assay has as its target Cytochrome P450 2C9 (Homo sapiens, UniProt P11712).
Assay [11] can be described thus: NIH-3T3 fibroblast cytotoxicity, dose response, cytotoxicity control, cell-based, fluorescence, Alamar Blue, secondary assay (AID 2327).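 Note: NIH-3T3 mouse fibroblasts cultured with fluconazole at 8 µg/mL.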 It is filed as functional.
The nature of assay [12]: fluconazole-exposed Candida albicans growth modulators – fluorescence, retest, confirmation (AID 2467). It is filed as functional, cell-based.
Assay [13] concerns the target T2, Replicative DNA helicase DnaB (Mycobacterium tuberculosis, UniProt P9WMR3).
T2 sequence (P9WMR3 whole entry): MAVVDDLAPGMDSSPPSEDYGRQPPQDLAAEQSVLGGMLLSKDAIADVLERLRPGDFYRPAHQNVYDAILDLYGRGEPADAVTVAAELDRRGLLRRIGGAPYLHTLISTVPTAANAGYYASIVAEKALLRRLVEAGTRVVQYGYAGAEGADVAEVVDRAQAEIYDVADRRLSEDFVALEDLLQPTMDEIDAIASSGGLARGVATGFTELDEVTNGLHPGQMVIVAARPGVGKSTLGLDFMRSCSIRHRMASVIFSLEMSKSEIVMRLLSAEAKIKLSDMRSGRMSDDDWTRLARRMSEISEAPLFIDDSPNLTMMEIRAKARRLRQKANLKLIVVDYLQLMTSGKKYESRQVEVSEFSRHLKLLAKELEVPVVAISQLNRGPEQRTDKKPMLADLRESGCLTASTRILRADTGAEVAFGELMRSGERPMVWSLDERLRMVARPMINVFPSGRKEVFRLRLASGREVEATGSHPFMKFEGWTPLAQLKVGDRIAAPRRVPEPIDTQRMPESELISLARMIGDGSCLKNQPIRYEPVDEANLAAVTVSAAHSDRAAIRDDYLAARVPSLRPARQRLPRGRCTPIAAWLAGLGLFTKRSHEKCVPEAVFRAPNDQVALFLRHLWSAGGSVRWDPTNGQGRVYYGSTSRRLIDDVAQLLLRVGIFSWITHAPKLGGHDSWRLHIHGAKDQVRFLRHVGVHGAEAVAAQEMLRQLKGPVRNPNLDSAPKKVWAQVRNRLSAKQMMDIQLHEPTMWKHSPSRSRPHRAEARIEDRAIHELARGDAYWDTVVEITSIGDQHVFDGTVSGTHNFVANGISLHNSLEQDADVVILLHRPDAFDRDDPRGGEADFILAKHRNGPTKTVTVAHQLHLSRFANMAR
Nature of the assay: DnaB intein splicing inhibitors, dose response, biochemical, cell-free fluorescence (AID 449749). It is filed as functional.

A further assay concerns the target T3, Protein RecA (Mycobacterium tuberculosis, UniProt P9WHJ3).
T3 sequence (P9WHJ3 whole entry): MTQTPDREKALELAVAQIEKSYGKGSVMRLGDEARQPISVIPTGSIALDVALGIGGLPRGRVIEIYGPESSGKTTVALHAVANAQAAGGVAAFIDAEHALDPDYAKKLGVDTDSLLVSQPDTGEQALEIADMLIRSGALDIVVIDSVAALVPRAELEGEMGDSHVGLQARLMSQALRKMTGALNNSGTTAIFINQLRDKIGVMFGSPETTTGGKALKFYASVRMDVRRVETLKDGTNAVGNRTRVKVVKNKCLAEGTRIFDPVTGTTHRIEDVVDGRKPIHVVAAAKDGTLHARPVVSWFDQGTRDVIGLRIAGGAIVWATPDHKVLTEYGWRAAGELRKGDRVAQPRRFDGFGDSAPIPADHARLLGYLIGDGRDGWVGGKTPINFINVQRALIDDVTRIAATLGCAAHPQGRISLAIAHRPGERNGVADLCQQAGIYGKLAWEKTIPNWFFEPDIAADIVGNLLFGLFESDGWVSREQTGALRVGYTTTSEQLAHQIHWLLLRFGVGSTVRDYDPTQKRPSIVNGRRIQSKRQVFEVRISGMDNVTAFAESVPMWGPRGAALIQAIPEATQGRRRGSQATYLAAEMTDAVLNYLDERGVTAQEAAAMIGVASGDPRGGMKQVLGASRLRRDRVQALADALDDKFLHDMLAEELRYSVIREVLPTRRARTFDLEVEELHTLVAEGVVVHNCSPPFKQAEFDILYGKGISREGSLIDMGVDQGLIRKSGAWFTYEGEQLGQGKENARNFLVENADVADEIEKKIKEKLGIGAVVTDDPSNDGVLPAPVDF
Nature of the assay: Fluorescence Cell-Free Homogeneous Dose Retest to Identify Inhibitors of RecA-Intein Splicing Activity. [Related pubchem assays (depositor defined):AID2097, AID2223, AID489010, AID492950]. It is filed as functional.

In another assay the test system is H9c2. Nature of the assay: cells. It is filed as functional, cell-based. As to conditions: Rattus norvegicus, H9c2, Myocardium.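 Note: confirmatory concentration-response retest of ultra-high-throughput screening hits for modulation of myocardial damage; cell death induced by hydrogen peroxide oxidative stress; compound pretreatment for 60 min then peroxide exposure for 2 h; potency is for protecting the cells against peroxide damage rather than for killing them.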
The subject of another assay is INS1. Nature of the assay: INS-1E survival protection against cytokine death – cell-based, luminescence, retest, dose response (AID 449756).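 Note: cell death triggered by IL-1 beta plus TNF-alpha plus IFN-gamma mixture; protective hits raise ATP signal compared with cytokine alone wells.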 It is filed as functional. Particulars: Rattus norvegicus.

Structures are written as SMILES. Calls of active or inactive are those of the source. Cut-off read from the data, not from the text of the source, for most assays here: actives have a measured EC50 and inactives only a lower limit. Bounds are passed on as bounds.

The source of these data is ChEMBL document CHEMBL1201862, “PubChem BioAssay data set” (2004).

For orientation: EC50 means the concentration giving half of the maximal effect. A word on the AC50: it is the midpoint of the concentration-response curve, whichever way the signal moves. The IC50 is the point on the concentration scale where inhibition reaches its midpoint.

Sequence of Luciferin 4-monooxygenase (P08659 whole entry): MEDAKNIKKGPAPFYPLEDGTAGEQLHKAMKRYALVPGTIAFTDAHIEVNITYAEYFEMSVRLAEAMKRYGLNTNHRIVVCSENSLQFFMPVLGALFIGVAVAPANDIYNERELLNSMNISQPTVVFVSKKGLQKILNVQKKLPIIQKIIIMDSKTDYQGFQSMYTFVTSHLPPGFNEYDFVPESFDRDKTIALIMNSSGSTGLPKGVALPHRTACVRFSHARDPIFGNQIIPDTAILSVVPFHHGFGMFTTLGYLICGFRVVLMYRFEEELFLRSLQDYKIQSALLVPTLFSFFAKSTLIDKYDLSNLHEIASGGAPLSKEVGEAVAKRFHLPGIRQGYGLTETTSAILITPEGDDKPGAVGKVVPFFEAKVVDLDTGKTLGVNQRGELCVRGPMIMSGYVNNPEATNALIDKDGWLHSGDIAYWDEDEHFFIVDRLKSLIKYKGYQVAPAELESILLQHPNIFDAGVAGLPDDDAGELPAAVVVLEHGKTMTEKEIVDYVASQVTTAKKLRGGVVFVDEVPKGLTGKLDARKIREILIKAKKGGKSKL
Sequence of Cytochrome P450 3A4 (P08684 whole entry): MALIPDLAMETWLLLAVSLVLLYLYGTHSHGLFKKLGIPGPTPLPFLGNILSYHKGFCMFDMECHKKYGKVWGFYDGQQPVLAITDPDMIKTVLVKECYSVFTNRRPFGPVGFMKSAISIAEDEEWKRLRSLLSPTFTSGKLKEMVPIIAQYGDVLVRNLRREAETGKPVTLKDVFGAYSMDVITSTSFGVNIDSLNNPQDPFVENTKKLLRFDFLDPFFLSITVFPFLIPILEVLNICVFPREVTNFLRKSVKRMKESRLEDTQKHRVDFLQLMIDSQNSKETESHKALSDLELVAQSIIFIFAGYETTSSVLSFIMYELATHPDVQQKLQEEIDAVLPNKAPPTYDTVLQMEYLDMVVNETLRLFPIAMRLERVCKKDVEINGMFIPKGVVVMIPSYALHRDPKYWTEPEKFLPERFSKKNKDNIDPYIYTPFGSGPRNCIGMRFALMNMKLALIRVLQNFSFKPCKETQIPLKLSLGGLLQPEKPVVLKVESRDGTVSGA
Sequence of Cytochrome P450 2C9 (P11712 whole entry): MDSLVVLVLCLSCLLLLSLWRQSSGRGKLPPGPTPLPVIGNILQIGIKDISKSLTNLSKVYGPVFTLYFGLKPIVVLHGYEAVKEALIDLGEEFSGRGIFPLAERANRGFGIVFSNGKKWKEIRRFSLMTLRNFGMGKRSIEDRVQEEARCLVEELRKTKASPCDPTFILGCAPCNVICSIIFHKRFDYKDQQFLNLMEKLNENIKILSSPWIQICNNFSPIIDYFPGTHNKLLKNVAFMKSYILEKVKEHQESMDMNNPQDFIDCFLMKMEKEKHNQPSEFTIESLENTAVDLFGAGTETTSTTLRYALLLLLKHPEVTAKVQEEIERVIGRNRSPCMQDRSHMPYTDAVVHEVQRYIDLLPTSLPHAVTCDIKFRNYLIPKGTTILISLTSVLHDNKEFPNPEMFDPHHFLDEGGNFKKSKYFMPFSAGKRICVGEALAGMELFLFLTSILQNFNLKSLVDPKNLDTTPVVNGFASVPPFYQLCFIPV

As to `Cc1cc(/C(O)=C(/C([S-])=Nc2ccccc2)[n+]2ccccc2)c(C)n1-c1ccccc1`, the concentration for a half-maximal effect (EC50) in [1] is 2.53 µM (active); in [2], > 120 µM (not active); in assay [3], > 120 µM (not active); in [4] it was > 120 µM (not active).
As for `Cc1ccc(C(=O)O/N=C(\N)c2ccccc2)c(Cl)c1`, the EC50 in [5] was 2.42 µM (active); in assay [1] it was < 0.16 µM (active); in assay [6], 1.03 µM (active).
As to `CCCCOc1ccc(NC(=O)C(=O)NCCC2=CCCCC2)cc1`, the EC50 in assay [7] was 142 µM (active); with BJ [8], > 150 µM (not active); in the assay with BJ [9] it was > 150 µM (inconclusive); in the assay with BJ [10], > 150 µM (not active).
For `CCCn1nc(C(=O)NNC(=O)c2cccc(S(=O)(=O)NC(C)C)c2)c2ccccc2c1=O`, the EC50 in [5] and in assay [6] was > 112 µM (not active) in each case.
On to `O=C1C(=C2SCCCS2)CC/C1=C\c1ccc(F)cc1`, for which the EC50 in assay [2] was 0.116 µM (active); in assay [3], 4.36 µM (active); in [4], 0.238 µM (active).
As to `O=C(Nc1cccc(NC(=O)c2cccnc2Cl)c1)c1ccco1`, the figures for the EC50 in assay [5] and in [6] were 16.6 µM (active) and > 112 µM (not active), respectively.
Take `COc1ccc(OC)c(Nc2nc(-c3cccc([N+](=O)[O-])c3)nc3ccccc23)c1`: the EC50 in assay [2] is 69.3 µM (active); in [3] it was 21.7 µM (active); in assay [4], > 120 µM (not active). Moreover, the results for the AC50 at Cytochrome P450 3A4 and on Cytochrome P450 2C9 were 2.82 µM (inconclusive) and 0.355 µM (inconclusive), respectively.
For the compound `COCC(C)n1c(C)cc(C(=O)CN2C(=O)NC(Cc3c[nH]c4ccccc34)C2=O)c1C` (centres undefined), the EC50 in assay [5] and in [6] was > 112 µM (not active) each time.
Consider `Cc1cc2ccccn2c1C(=O)c1cccc([N+](=O)[O-])c1`, for which the EC50 in assay [7] is > 150 µM (inconclusive); with BJ [8], > 150 µM (not active); with BJ [9], > 150 µM (inconclusive); in the assay on BJ [10], > 150 µM (not active).
Regarding `Cc1nc2cc(Nc3ccncc3)ccc2s1`, the EC50 in [5] and in [6] was > 112 µM (not active) each time.
With `O=C(CSc1nc2ccccc2c(=O)n1Cc1ccco1)N1CCCC1`, the results for the EC50 in assay [2], in [3] and in [4] were > 120 µM (not active), > 120 µM (not active) and 20.3 µM (active), respectively.
With `O=C(Nc1ccc(S(=O)(=O)NC2CCCCC2)cc1)c1ccco1`, the concentration for a half-maximal effect (EC50) in assay [2] was > 120 µM (not active); in assay [3], > 120 µM (not active); in [4], 26.7 µM (active).
As to `COc1ccc(C2=CC(c3ccc(OC)c(OC)c3)c3c(c4ccccc4oc3=O)O2)cc1OC` (centres undefined), the EC50 in assay [1] is > 195 µM (not active); in [7] it was 17.3 µM (active); with BJ [8] it was 5.11 µM (active); in the assay with BJ [9], 27.7 µM (active); in the assay with BJ [10], 51.8 µM (active).
For the compound `O=C(Nc1ccc(OCc2ccccc2Cl)cc1)c1cccnc1`, the EC50 in assay [2] is 0.485 µM (active); in assay [11], > 150 µM (inactive); in [3] it was 0.909 µM (active); in [4], 3.07 µM (active); in [12], > 38 µM (not active).
With `COc1cc2c(cc1OC)C(C)N(C(=O)c1cc(C)on1)CC2` (centres undefined), the EC50 in [2] is 0.415 µM (active); in [3], 3.88 µM (active); in [4], 4.12 µM (active).
Consider `N#CC1=C(N)Oc2cc(N)ccc2C1c1cccc(F)c1` (centres undefined), for which the EC50 in assay [7] is 16.5 µM (active); in the assay with BJ [8], 10.8 µM (active); in the assay with BJ [9], 14.2 µM (inconclusive); in the assay with BJ [10], 34 µM (active).
For the compound `Cn1c(=O)c2c(nc(SCCN3CCOCC3)n2Cc2ccccc2Cl)n(C)c1=O`, the EC50 in assay [5] and in assay [6] was > 112 µM (not active) each time.
Regarding `Cc1c(OCC(=O)Nc2cccnc2)ccc2c3c(c(=O)oc12)CCC3`, in assay [13], the AC50 is 2.65 µM (active). The EC50 is > 120 µM (not active) in [2], 2.26 µM (active) on Protein RecA and > 120 µM (not active) in [3].
With `CC(C)NC(=O)COC(=O)c1ccc(S(=O)(=O)N2CCCC2)cc1`, the EC50 in [2], in assay [3] and in [4] was > 120 µM (not active) throughout.
Consider `C=CCc1ccccc1OCC(=O)N/N=C/c1ccc(OC(C)=O)cc1OC(C)=O`, for which the EC50 in assay [2] was 10.6 µM (active); in assay [3] it was 14.6 µM (active); in assay [4] it was 12.3 µM (active). Moreover, in the assay with H9c2, the IC50 is > 79 µM (inactive).
`Cc1ccc(-c2nc(N/N=C/c3cccnc3)c3ccccc3n2)cc1`: the EC50 in [5] was 1.02 µM (active); in assay [6] it was 0.798 µM (active). Moreover, the AC50 in the assay with INS1 was 6.77 µM (active).
On to `CCn1cc(/C=N\NC(=O)c2ccc3c(c2)c(C)c(C)n3Cc2ccccc2)c(C)n1`, for which the EC50 (in assay [7]; with BJ [8]; with BJ [9]; in the assay on BJ [10]) was > 150 µM (not active) each time.
